The source of these data is US20260373078A1 (NANJING QINLING PHARMACEUTICAL TECHNOLOGY COMPANY LIMITED, priority 2023, published 2026).

Series [1] deals with human glioma cancer cells. Particulars: Tsai et al., Int J Mol Sci. 2012; cited from earlier work.
Series [2] is described as follows: Water solubility of wogonin / uniform solution with arginine. It is filed as physicochemical. The conditions noted are these: arginine 2%-10% (w/v). The source says: In addition, in order to ensure that a pH of the solution remains stable within a range of 7.0-11.0, an appropriate amount of citric acid may need to be added to the formulation, with a content of 0.01%-0.05% (w/v).

Take `COc1c(O)cc(O)c2c(=O)cc(-c3ccccc3)oc12` [Wogonin, wogonin]: the “reactive oxygen species production and cell apoptosis” value in series [1] was “induces reactive oxygen species production and cell apoptosis”. For the same compound, the “content of wogonin at which a uniform solution may be obtained” value in series [2] is 0.1-5.0 % (w/v).
